Like-named read-outs stand apart in the source and are kept apart here.
Legend:
weiblichen NMRI-Mäusen = assay: Sedative effect: inhibition of orientation hypermotility induced by a new environment, photoelectric measurement; assay type: in vivo, Maus; details: for ED50: Mus musculus, po, 0.5 h, Maus, read-out: Motilitätshemmung ED 50 %; for Wirkungsstärke (sedativ) der Referenzsubstanz / Motilitätshemmung um 50 %: -mal größere Dosen als Referenzsubstanz: relative to Chlorpromazin; for Wirkungsstärke (sedativ) der Referenzsubstanz: mouse p.o.; for sedative Wirkung: result in words
Text: (§1) Sie eignen sich mit bevorzugter sedativ/transquilisierender und anti-monaminerger Wirkung als Sedativa/Hypnotika oder als Tranquilizer bzw. Neuroleptica. Andere erfindungsgemäße Verbindungen eignen sich wegen ihrer relativ selektiven blutdrucksenkenden Wirksamkeit zur Behandlung der Hypertonie und zur Entlastung des Herzen bei Herzinsuffizienz. ) Zum Nachweis der pharmakologischen Wirkungen wurden folgende Methoden verwendet: • 1. Sedative Wirkung • 4-8 Gruppen von jeweils 3 weiblichen NMRI-Mäusen erhalten die Substanz oral appliziert. Die photoelektrische Bestimmung der durch eine neue Umgebung induzierten Orientierungshypermotilität erfolgt 30 min nach der Applikation der Substanzen für eine Dauer von 30 min. • Als ED 50 wird die Dosis bestimmt, welche im Vergleich zu Placebo-behandelten Kontrolltieren eine Abnahme der Orientierungshypermotilität um 50 % bewirkt. • 2. Anti-Methamphetamin-Wirkung • Methamphetamin-HCl (2,5 mg/kg i.v.) ruft an Ratten regelmäßig folgende Symptome hervor: motorische Unruhe, Such- und Schnüffelbewegungen, Fellsträuben sowie Tremor (Janssen et al., Arzeim. Forsch./Drug Res. 13, 205, 1963, RANDRUP et al., Psychopharmacologia 11, 300, 1967). • Die Prüfsubstanzen werden 30 min vor Methamphetamin intraperitoneal verabfolgt. Kriterium für einen Substanzeffekt ist das Ausbleiben der Schnüffelbewegungen innerhalb eines 5-minütigen Beobachtungszeitraums nach Methamphetamin-Injektion. • Als mittlere Hemmdosis (ED 50) wird mittels Probitanalyse die Dosis ermittelt, die das Symptom bei der Hälfte der Tiere verhindert. • 3. Hypotensive Wirkung • Die blutdrucksenkende Wirkung wurde an narkotisierten Ratten (Stamm: Spraque Dawley, Gewicht: 230-280 g) in Urethan-Narkose (1,78 g/kg i.p.) nachgewiesen. Der Blutdruck wurde in der Aorta carotis gemessen. Die Substanzapplikation erfolgte in eine Vena jugularis (wäßrige Lösung, 1 ml/kg). Als ED 20 % wurden aus der linearen Regression zwischen log Dosis (mg/kg) und relativer Blutdrucksenkung (Δ%) die Dosen ermittelt, welche eine 20 %ige Blutdrucksenkung bewirken.

[1] = test system: narkotisierten Ratten (Stamm: Spraque Dawley); assay: Hypotensive effect: blood pressure lowering in urethane-anaesthetised rats; assay type: in vivo, Ratte; details: for ED20: Rattus norvegicus, iv, read-out: Blutdrucksenkung ED 20 %; for Blutdrucksenkung ED 20 % R.W. (Relative Wirksamkeit; Chlorpromazin = 1,00) / Blutdrucksenkung ED 20 % R.W. (Relative Wirksamkeit: Chlorpromazin = 1,00): i.v.; for Q (ED 50 % Motilitätshemmung / ED 20 % Blutdrucksenkung): ratio of mouse p.o. ED 50 % to rat i.v. ED 20 %; for hypotensiv wirksame Dosen, -mal größer als die der Referenzsubstanz: rat i.v.
Text: as §1

[2] = Table 1, Applikation: per. os., measured 30 min after application for 30 min
[3] = Table 1, Ratte, Urethan-Narkose, Applikation: i.v.
[4] = Table 1, Ratte, Urethan-Narkose
[5] = Table 2, Ratte, Urethan-Narkose, Applikation: i.v.
[6] = Table 2, Ratte, Urethan-Narkose

Row | SMILES | ED50 (weiblichen NMRI-Mäusen; [2]) | sedative Wirkung (weiblichen NMRI-Mäusen) | Blutdrucksenkung ED 20 % R.W. (Relative Wirksamkeit: Chlorpromazin = 1,00) [1, 6] | Q (ED 50 % Motilitätshemmung / ED 20 % Blutdrucksenkung) ([1]; Table 2) | ED50 (weiblichen NMRI-Mäusen; Table 2, Applikation: per os.) | ED20 [1, 5] | also measured
1 | O=C1CCc2c(OCC(O)CN3CCN(c4ccc(F)cc4)CC3)cccc21 (racemic) [Beispiel 1, 4-(3-[4-(4-Fluorphenyl)-1-piperazinyl]-2-hydroxy-propoxy)--indanon-1] | 3.05 mg/kg | sedativ wirken |  |  |  |  | Wirkungsstärke (sedativ) der Referenzsubstanz (weiblichen NMRI-Mäusen): 69%; ED20 [1, 3]: 1.07 mg/kg
2 | CN(C)CCCN1c2ccccc2Sc2ccc(Cl)cc21 [Chlorpromazin, reference compound] | 2.11 mg/kg |  | 1,00 | 81 |  |  | Quotienten aus den effektiven Dosen für die Motilitätshemmung (ED 50 %) und Blutdrucksenkung (ED 20 %) [1]: 81; ED20 [1]: 0.026 mg/kg; Blutdrucksenkung ED 20 % R.W. (Relative Wirksamkeit; Chlorpromazin = 1,00) [1, 4]: 1,00; Blutdrucksenkung ED 20 % [1, 5]: 0,0260 mg/kg
3 | COc1ccccc1N1CCN(CC(O)COc2cccc3c2CCC3=O)CC1 (racemic) [Beispiel 13, 4-(3-[4-(2-Methoxyphenyl)-1-pipera-zinyl]-2-hydroxy-propoxy)-indanon-1] |  |  | 0,89 | 376 | 11 mg/kg | 0.0293 mg/kg | Motilitätshemmung um 50 %: -mal größere Dosen als Referenzsubstanz (weiblichen NMRI-Mäusen): 5 mal; Wirksamkeit nach den blutdrucksenkenden Dosen (ED 20 %) von Chlorpromazin ([1]; relative to Chlorpromazin): 89%
4 | O=C1CCc2cccc(OCCCN3CCN(c4ccc(F)cc4)CC3)c21 [Beispiel 30, 7-(3-[4-(4-Fluorphenyl)-1-piperazinyl]--propoxy)-indanon-1] | 5.03 mg/kg | sedativ wirken |  |  |  |  | Blutdrucksenkung ED 20 % R.W. (Relative Wirksamkeit; Chlorpromazin = 1,00) [1, 4]: 0,16; hypotensiv wirksame Dosen, -mal größer als die der Referenzsubstanz ([1]; relative to Chlorpromazin): 6 mal
5 | COc1cccc(N2CCN(CC(O)COc3cccc4c3CCC4=O)CC2)c1 (racemic) [Beispiel 14, 4-(3-[4-(3-Methoxyphenyl)-1-pipera-zinyl]-2-hydroxy-propoxy)-indanon-1] | 9.44 mg/kg | sedativ wirken |  |  |  |  | Wirkungsstärke (sedativ) der Referenzsubstanz (weiblichen NMRI-Mäusen): 22%; ED20 [1, 3]: 1 mg/kg
6 | O=C1CCc2cccc(OCC(O)CN3CCN(c4ccccc4Cl)CC3)c21 (racemic) [Beispiel 20, 7-(3-[4-(2-Chlorphenyl)-1-piperazinyl]--2-hydroxy-propoxy)-indanon-1] |  |  | 2,50 | 4077 | 42.4 mg/kg | 0.0104 mg/kg | Motilitätshemmung um 50 %: -mal größere Dosen als Referenzsubstanz (weiblichen NMRI-Mäusen): 20 mal; Quotienten aus den effektiven Dosen für die Motilitätshemmung (ED 50 %) und Blutdrucksenkung (ED 20 %) [1]: 4 077; stärker wirksam als Chlorpromazin (Blutdrucksenkung ED 20 %) ([1]; relative to Chlorpromazin): 2,5 mal
7 | O=C1CCc2c(OCCCN3CCN(c4ccc(F)cc4)CC3)cccc21 [Beispiel 4, 4-(3-[4-(4-Fluorphenyl)-1-piperazinyl]-propoxy)-indan-1-on] | 3.56 mg/kg | sedativ wirken |  |  |  |  | Blutdrucksenkung ED 20 % R.W. (Relative Wirksamkeit; Chlorpromazin = 1,00) [1, 4]: 0,14
8 | COc1ccccc1N1CCN(CC(O)COc2ccc3c(c2)CCC3=O)CC1 (racemic) [Beispiel 17] |  |  | 0,36 | 183 | 13.2 mg/kg | 0.0722 mg/kg | Quotienten aus den effektiven Dosen für die Motilitätshemmung (ED 50 %) und Blutdrucksenkung (ED 20 %) [1]: 183
9 | COc1ccccc1N1CCN(CC(O)COc2cccc3c2C(=O)CC3)CC1 (racemic) [Beispiel 23, 7-(3-[4-(2-Methoxyphenyl)-1-piperazi-nyl]-2-hydroxy-propoxy)-indanon-1] |  |  | 0,46 | 333 | 19 mg/kg | 0.057 mg/kg | 
10 | COc1ccc(N2CCN(CC(O)COc3ccc4c(c3)CCC4=O)CC2)cc1 (racemic) [Beispiel 19, 5-(3-[4-(4-Methoxyphenyl)-1-piperazi-nyl]-2-hydroxy-propoxy)-indanon-1] | 5.76 mg/kg | sedativ wirken |  |  |  |  | ED20 [1, 3]: 7.91 mg/kg; hypotensiv wirksame Dosen, -mal größer als die der Referenzsubstanz ([1]; relative to Chlorpromazin): 300 mal
11 | Cc1ccccc1N1CCN(CC(O)COc2cccc3c2CCC3=O)CC1 (racemic) [Beispiel 10, 4-(3-[4-(2-Methylphenyl)-1-pipera-zinyl]-2-hydroxy-propoxy)-indanon-1] |  |  | 0,16 | 294 | 46.4 mg/kg |  | Motilitätshemmung um 50 %: -mal größere Dosen als Referenzsubstanz (weiblichen NMRI-Mäusen): 20 mal; Wirksamkeit nach den blutdrucksenkenden Dosen (ED 20 %) von Chlorpromazin ([1]; relative to Chlorpromazin): 16%

From patent EP0043971A1, “Indanoneoxyalkylpiperazine derivatives, the preparation thereof and pharmaceutical compositions containing the same” (priority 1980, dated 1982)
